Target: T1, ZmGlu1 (Zea mays, UniProt P49235)
T1 construct: gene GLU1; E. coli BL21 Star (DE3)
Test: HPLC of released methyl anthranilate at […] nm, Michaelis-Menten fit
Assay type: biochemical
Conditions: 50 mM phosphate pH 6.0, 35 °C, 3 μM enzyme, 1.17-20 mM substrate

T1 sequence (P49235 55-566): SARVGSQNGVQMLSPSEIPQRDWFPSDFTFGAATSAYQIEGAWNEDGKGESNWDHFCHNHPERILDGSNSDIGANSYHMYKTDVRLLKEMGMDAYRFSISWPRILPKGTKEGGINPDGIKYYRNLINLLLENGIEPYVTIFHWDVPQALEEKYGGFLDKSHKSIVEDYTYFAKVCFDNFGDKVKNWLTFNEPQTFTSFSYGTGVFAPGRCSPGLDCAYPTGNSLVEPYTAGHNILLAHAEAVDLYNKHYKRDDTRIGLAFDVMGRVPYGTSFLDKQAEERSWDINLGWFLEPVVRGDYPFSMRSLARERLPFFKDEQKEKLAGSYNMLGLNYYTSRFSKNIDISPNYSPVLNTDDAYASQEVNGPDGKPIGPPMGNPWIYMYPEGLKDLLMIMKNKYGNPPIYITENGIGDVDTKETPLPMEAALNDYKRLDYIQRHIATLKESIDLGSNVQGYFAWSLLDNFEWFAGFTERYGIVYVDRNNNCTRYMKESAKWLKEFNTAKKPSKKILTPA

COC(=O)c1ccccc1N[C@@H]1O[C@H](CO)[C@@H](O)[C@H](O)[C@H]1O [MANT‐N‐glucose, methyl anthranilate‐N‐β‐D‐glucopyranoside]
Km: 13.7 ± 1.22 mM
